Test results: patent US9388224B2, “Compositions for preserving insulin-producing cells and insulin production and treating diabetes” (VANDERBILT UNIVERSITY, priority 2011, dated 2016)
Bridge positions count the residues as written; N and C are the ends. Ends that are not written are not given here. Peptide text beside a SMILES is read from it.

Legend:
[1] = test system: autoimmune diabetes in NOD mice; test: Autoimmune diabetes progression in cyclophosphamide-synchronized NOD mice (blood glucose); assay type: in vivo; settings: general statement, experiments described herein
Source text: NOD/LtJ, NOD-BDC2.5 and C57BL/6 mice were purchased from the Jackson Laboratories (Bar Harbor, Me.) at 6-8 weeks of age. All mice were housed and maintained according to the guidelines for use and care of laboratory animals as set forth by Vanderbilt University and regulated via the Vanderbilt IACUC. All NOD mice were monitored twice weekly for the development of diabetes by blood glucose measurement with FreeStyle® FastTake test strips (Abbott Laboratories, Abbott Park, Ill.). Two consecutive glucose measurements >220 mg/dl constituted a diagnosis of diabetes. A colony of NOD mice kept by a collaborating laboratory in the same animal suite has a spontaneous diabetes incidence of 80-90% in females by 30 weeks of age indicating an animal environment that is conducive for diabetes development.
At 10-11 weeks of age, female NOD mice received an intraperitoneal bolus injection of 200 mg/kg cyclophosphamide (Sigma). Cyclophosphamide was prepared by reconstitution of powder in sterile saline for injection.
45 h after diabetes synchronization with cyclophosphamide, treatment with cSN50 or control was initiated. Mice receiving cSN50 were given 35 μg/g of cSN50 i.p. every two hours for the next 48 h. Control mice received either saline or non-cell penetrating cN50 peptide at molar equivalent (20 μg/g). cN50 peptide, contains the cyclized NLS but lacks the membrane translocating motif. […]

[2] = Continued peptide delivery in other disease models, toxicity; assay type: in vivo; settings: up to 8 weeks, health, survival, weight gain, liver enzymes, blood cell counts normal
Source text: Reduction or complete elimination of islet-destructive autoreactive T and B cells may be useful in treating T1D and potentially other autoimmune diseases. Other autoimmune disorders include Systemic Lupus Erythematosus, Multiple Sclerosis, Rheumatoid Arthritis, Crohn Diseases, and Ulcerative Collitis. Under conditions of metabolic, inflammatory, and oxidant stress, beta cell mass may be further controlled by important interactions between bone marrow-derived cells and islet beta cells. Transcriptional modulation of these interactions via targeting of the nuclear import machinery represents an important new opportunity for therapeutic development. Even though cSN50 can modulate nuclear transport of several stress-responsive transcription factors that utilize importin alpha 1/karyopherin alpha 5 (as well as other importins/karyopherins, e.g., importin alpha 5/karyopherin) for nuclear trafficking, intracellular delivery of the Nuclear Transport Modifier is rapid and restricted to the relatively short intracellular persistence of the injected cargo (Hawiger J., (1999) Current Opinion in Chem. Biology 3:89-94). Despite high intensity dosing of cSN50 in the protocols disclosed herein, short-term or long-term adverse effects were not observed. […] In preliminary studies, spontaneous disease was reversed in 40% of the NOD mice during a continuing NTM treatment for 3 weeks.

[3] = test system: NOD mice; test: Toxicity observation and clinical chemistry in treated NOD mice
Protocol: ALT and BUN levels were determined on a VITROS 250 Chemistry analyzer using multi-layered vitros slides and colorimetric or enzyme rate tests as appropriate.
Ten week old female NOD mice received one dose of Cy (0.2 mg/g); after 45 h, intracellular peptide delivery was initiated with cSN50 (35 μg/g) or with control cN50 and continued every 2 h for 48 h. Serum was obtained daily from the saphenous vein and measurements of ALT (FIG. 8A) and BUN (FIG. 8B) were performed in 7 mice in each group.

[4] = Anti-cSN50 peptide antibody induction (ELISA); assay type: in vivo, NOD mice; settings: limit of detection 10 ng/mL
[5] = In vivo intracellular peptide delivery to the pancreas (confocal microscopy); parameters: species or system NOD mice; settings: single i.p. injection (0.7 mg FITC-labeled peptide/mouse or FITC of equivalent fluorescence); 2 h after injection
Source text: Cell-penetrating peptide (cSN50, MW=3149; cSN50.1, MW=2986), and non-cell-penetrating peptide (cN50, MW=1651), were synthesized, purified, filter-sterilized, and analyzed as described elsewhere (Torgerson et al. (1998) J Immunol 161: 6084-6092; Liu et al. (2000) J Biol Chem 275: 16774-16778). To monitor the intracellular delivery of peptides to pancreas, cSN50 peptide was coupled with fluorescein isothiocyanate (FITC, Pierce) according to the manufacturer's protocol.
For in vivo detection of fluorescein-labeled peptides in the pancreas, NOD mice were sacrificed at 2 h after intraperitoneal (i.p.) injection of 0.7 mg of FITC-labeled cSN50 peptide/mouse. The pancreata were washed with saline and prepared for cryosections (10 μm thickness). Control solution of FITC alone with equivalent fluorescence units was injected separately to track distribution to the pancreas.
Intracellular delivery of a Nuclear Transport Modifier to the pancreas reduces islet inflammation (insulitis). […] It was first determined whether cSN50 would be delivered to the pancreas, the primary site of autoimmune attack against beta cells in pancreatic islets. […] Using confocal microscopy, the pancreatic delivery of FITC-labeled cSN50 peptide following a single intraperitoneal (i.p.) injection was assessed. […]

Molecule: AAVALLPAVLLALLAPCVQRKRQKLMPC (disulfide 17-28 (inferred)) [cSN50.1, cSN50 with the tyrosine at position 18 removed to increase solubility]
- islet protection from immune destruction [1]: effectively protected islets from immune destruction

Molecule: CSCC[C@@H]1NC(=O)[C@H](CC(C)C)NC(=O)[C@H](CCCCN)NC(=O)[C@H](CCC(N)=O)NC(=O)[C@H](CCCNC(=N)N)NC(=O)[C@H](CCCCN)NC(=O)[C@H](CCCNC(=N)N)NC(=O)[C@H](CCC(N)=O)NC(=O)[C@H](C(C)C)NC(=O)[C@H](Cc2ccc(O)cc2)NC(=O)[C@@H](NC(=O)[C@@H]2CCCN2C(=O)[C@H](C)NC(=O)[C@H](CC(C)C)NC(=O)[C@H](CC(C)C)NC(=O)[C@H](C)NC(=O)[C@H](CC(C)C)NC(=O)[C@H](CC(C)C)NC(=O)[C@@H](NC(=O)[C@H](C)NC(=O)[C@@H]2CCCN2C(=O)[C@H](CC(C)C)NC(=O)[C@H](CC(C)C)NC(=O)[C@H](C)NC(=O)[C@@H](NC(=O)[C@H](C)NC(=O)[C@H](C)N)C(C)C)C(C)C)CSSC[C@@H](C(=O)O)NC(=O)[C@@H]2CCCN2C1=O [cSN50] (H-AAVALLPAVLLALLAPCYVQRKRQKLMPC-OH; disulfide 17-29; N-terminus and C-terminus assumed)
- toxicity on continued delivery [2]: without evidence of toxicity
- overt signs of toxicity ([3]; 365 days of observation after 48 h treatment): did not display overt signs of toxicity
- acquired infection ([3]; after intensive treatment): no signs of acquired infection
- weight gain ([3]; after intensive treatment): normal weight gain
- BUN level ([3]; serum daily, 7 mice per group, vs cN50 control): not significantly different from control
- ALT level ([3]; serum daily, 7 mice per group, vs control): not significantly different from control
- alkaline phosphatase, creatinine, creatine kinase, and total bilirubin ([3]; serum, 7 mice per group): below the limit of detection
- anti-cSN50 peptide antibody induction [4]: not detected

Molecule: fluorescein isothiocyanate [FITC]
- delivery to / distribution in the pancreas [5]: did not penetrate the organ
